Test results reported in US20260097115A1 (priority 2023, published 2026).

Key:
Assay type in all cases: cell-based, human
[1] = test system: HLA-II complexes (HLA-DR, HLA-DP, HLA-DQ) of HEK293T/ATC cells
[2] = test system: HLA-II complexes of A549/ATC and HEK293T/ATC cells
[3] = test system: HLA-II complexes (HLA-DR, HLA-DP, HLA-DQ) of A549/ATC cells

Sequence | Unique HEK293T peptides in segment [1] | Unique peptides in segment [2] | Unique A549 peptides in segment [3] | Detection as HLA-II peptide by LC-MS/MS [1]
AALQIPFAMQMAYRENGIG [S:892-910] | 11 | 11 | 0 | –
ALHFLLFFRALPKS [ORF3a.iORF1: 28-41] | 1 | 1 | 0 | observed in the same fraction (fxn 3) in two biological replicates
ATREASVYAWNRKRISN [S:344-360] | 3 | 3 | 0 | –
CSNLLLQYGSFCTQLNRALTGIAVEQDKNTQE [S:749-780] | 10 | 10 | 0 | –
DGSEDNQTTTIQTIVE [nsp3: 174-189] | 1 | 1 | 0 | –
DSFVIRGDEVRQIAPG [S:398-413] | 1 | 1 | 0 | –
EPQIITTDNTFVSGN [S:1111-1125] | 0 | 1 | 1 | –
IAQFAPSASAFFG [N: 304-316] | 0 | 1 | 1 | –
ICASYQTQTNSPRRA [S:670-684] | 1 | 1 | 0 | –
INITRFQTLLALHRSYL [S: 233-249] | 1 | 1 | 0 | –
KKKADETQALPQRQKKQQTVTLLPAADLDDESKQLQQSMSSADSTQA [N: 373-419] | 69 | 69 | 5 | –
MAGNGGDAALALLLLDRLNQLESKMSGKGQQQQGQTVT [N: 210-247] | 0 | 21 | 21 | –
MDGSIIQFPNTYLEGSVR [nsp4: 194-211] | 5 | 5 | 0 | –
MDLFMRIFTIGTVTLKQGEIKDATPSDF [ORF3a: 1-28] | 4 | 4 | 1 | –
MDPKISEMHPALRLVDPQIQLAVTRMENA [ORF9b: 1-29] | 8 | 8 | 0 | –
NVPLHGTILTRPLLESELVIGAVILRGHLRIAGHHLGRCDIKDLPKEITVA [M: 121-171] | 18 | 34 | 16 | –
RIGMEVTPSGTWLTYTGAIKLDDKDPNEKDQVILLNKHIDAYKTEPP [N: 319-365] | 17 | 44 | 36 | –
SDNGPQNQRNAPRITE [N: 2-17] | 0 | 1 | 1 | –
SPDAVTAYNGYLTSSSK [nsp3: 661-677] | 1 | 1 | 0 | –
SVASQSIIAYTMSLGAEN [S:686-703] | 3 | 3 | 0 | –
TDHSSSSDNIALLVQ [M: 208-222] | 2 | 2 | 2 | –
TEIYQAGSTPCNGVEG [S:470-485] | 2 | 2 | 0 | –
TGPEAGLPYGANKDG [N: 115-129] | 0 | 1 | 1 | –
TPTWRVYSTGSNVFQTRAG [S:630-648] | 2 | 3 | 1 | –
TQLPPAYTNSFTRGVYYPDKVERSSVLHSTQDLFLPFFS [S: 22-60] | 0 | 13 | 13 | –
TQQLIRAAEIRASANLA [S:1009-1025] | 14 | 14 | 0 | –
TVEKGIYQTSNERVQPTES [S:307-325] | 3 | 4 | 3 | –
VGPKVYPIILRLGSPLS [ORF9b: 37-53] | 2 | 2 | 0 | –
YIINLIIKNLSKS [ORF6: 31-43] | 0 | 1 | 1 | –
